# Experiments:
# [1] = Oxygen Radical Absorbance capacity (ORAC) assay; assay type: biochemical; conditions: 1/100 dilution of stock solutions; FIG. 1a
# Procedure: Those figures depict graphical comparison of the antioxidant values of momordica cochichinchinensis (gac) aril, β-carotene, and lycopene using […] (ORAC) assay, ORAC values were obtained using a Trolox standard linear regression line.
# (§1) Antioxidant capacities were assessed by the overall abilities of the compounds to suppress peroxyl radicals generated from the thermal homolysis of 2,2′-azobis-amidinopropane. Stock solutions of all samples were diluted 1/100 and 1/1000. […] However, at a lower concentration (dilution of 1/1000), the gac aril provided the highest peroxyl radical-scavenging capacity, 1.8 and 1.3 times as much as β-carotene and lycopene, respectively (FIG. 1b).
# [2] = Total Oxygen radical Scavenging Capacity (TOSC) assay; assay type: biochemical; conditions: for total antioxidant activities, times higher than Trolox: in momordica cochinchinensis aril; for antioxidant capacity, higher than Trolox: in the gac oil
# Procedure: as §1
# Using the TOSC method, it was apparent that total antioxidant activities of beta-carotene and lycopene in momordica cochinchinensis aril were high (2 times higher than Trolox), an analogue of Vitamin E commonly used a gold standard. The comparative TOSC values (cTOSC) of gac (Redmelon™) aril maintains 5.4 times greater than Trolox. […] The results are summarized below in the following table
smiles,measurement,setting,value
CC(C)=CCC/C(C)=C/C=C/C(C)=C/C=C/C(C)=C/C=C/C=C(C)/C=C/C=C(C)/C=C/C=C(\C)CCC=C(C)C [lycopene],"ability to scavenge peroxyl radicals, times as much as the Redmelon™ aril",[1],1.4 times
same,"ability to scavenge peroxyl radicals, times as much as β-carotene",[1],2.4 times
same,"total antioxidant activities, times higher than Trolox",[2]; relative to Trolox,2 times
same,"antioxidant capacity, higher than Trolox",[2]; relative to Trolox,50%
same,"peroxyl radical scavenging capacity (rTOSC), times greater than Trolox",[2]; relative to Trolox,24 times
Cc1c(C)c2c(c(C)c1O)CCC(C)(C(=O)O)O2 (stereo not drawn) [Trolox],cTOSC,[2]; comparative TOSC value,1.00
same,rTOSC,[2]; peroxyl radical scavenging capacity,4.51
CC1=C(/C=C/C(C)=C/C=C/C(C)=C/C=C/C=C(C)/C=C/C=C(C)/C=C/C2=C(C)CCCC2(C)C)C(C)(C)CCC1 [beta-carotene],"total antioxidant activities, times higher than Trolox",[2]; relative to Trolox,2 times
same,"antioxidant capacity, higher than Trolox",[2]; relative to Trolox,50%

# From US8668942B2, “Skin anti-oxidant enhancing formulation and associated method” (Fishrock Laboratories, Inc., priority 2012, dated 2014)
